Test results reported in patent publication US20220380378A1 (ESSA Pharma, Inc., priority 2021, published 2022).
Read-outs that look alike come from different tables or passages of the source.

Experiments:
androgen receptor (AR) [1] = molecular target: T1, androgen receptor (AR) (Homo sapiens, UniProt P10275, T878A); test: Androgen-induced PSA (6.1 kb)-luciferase reporter assay in LNCaP cells (R1881 1 nM); format: cell-based; parameters: LNCaP cells were transiently transfected with the PSA (6.1 kb)-luciferase reporter for 24 h; endogenous in cells; host or cells: LNCaP; settings: 24 h, read-out: PSA-Luc IC50 Range
T1 sequence (P10275 1-920 T878A): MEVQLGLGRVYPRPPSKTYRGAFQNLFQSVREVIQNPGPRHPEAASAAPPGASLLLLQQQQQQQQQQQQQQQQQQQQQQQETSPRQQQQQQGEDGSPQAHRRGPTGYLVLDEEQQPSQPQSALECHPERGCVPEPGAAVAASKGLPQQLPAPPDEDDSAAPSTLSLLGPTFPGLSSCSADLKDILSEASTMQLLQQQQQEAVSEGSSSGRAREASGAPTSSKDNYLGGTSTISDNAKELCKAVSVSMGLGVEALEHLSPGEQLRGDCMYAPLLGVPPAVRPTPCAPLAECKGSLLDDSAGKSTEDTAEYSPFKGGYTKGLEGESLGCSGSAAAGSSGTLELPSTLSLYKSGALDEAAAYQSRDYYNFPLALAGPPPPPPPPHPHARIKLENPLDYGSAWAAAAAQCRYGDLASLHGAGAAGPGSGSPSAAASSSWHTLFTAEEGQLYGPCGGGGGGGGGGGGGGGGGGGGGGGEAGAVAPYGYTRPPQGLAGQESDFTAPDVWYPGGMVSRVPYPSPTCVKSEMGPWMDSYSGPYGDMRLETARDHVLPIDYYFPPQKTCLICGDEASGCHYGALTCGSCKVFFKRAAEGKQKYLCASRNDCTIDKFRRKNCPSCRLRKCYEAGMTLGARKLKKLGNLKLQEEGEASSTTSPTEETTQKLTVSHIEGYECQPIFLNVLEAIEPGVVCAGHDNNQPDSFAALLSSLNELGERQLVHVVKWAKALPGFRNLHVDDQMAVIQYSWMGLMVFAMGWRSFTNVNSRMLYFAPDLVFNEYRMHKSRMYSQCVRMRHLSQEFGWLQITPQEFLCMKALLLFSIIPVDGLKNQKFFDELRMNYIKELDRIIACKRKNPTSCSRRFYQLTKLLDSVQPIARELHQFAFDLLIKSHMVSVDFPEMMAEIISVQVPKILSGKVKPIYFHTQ
Protocol: The PSA (6.1 kb)-luciferase reporter contains functional AREs (androgen response elements) to which AR binds in response to androgen to induce luciferase activity. LNCaP cells were transiently transfected with the PSA (6.1 kb)-luciferase reporter for 24 h, and then pretreated with vehicle (DMSO) or indicated concentration of representative compounds for one hour prior to the addition of synthetic androgen, R1881 (1 nM). After 24 h of incubation with R1881, the cells were harvested, and relative luciferase activities were determined (FIG. 1). To determine the IC50, treatments were normalized to vehicle control activity induced by R1881 (Table 2).
Luciferase Assay: Cells were lysed using Passive Lysis Buffer (Promega) and then collected into V-bottom 96-well tissue culture plates. Lysates were centrifuged at 4° C. for 5 minutes at 3000 rpm. To measure luminescence of LNCaP cell lysates the Firefly Luciferase Assay System (Promega) was employed, according to manufacturer's protocol. Relative luminescence units (RLU) in cell lysates were detected for 10 seconds using Promega GloMax-Multi Detection Luminometer (Promega). Values were normalized to protein content. GraphPad Prism graphing software was used to calculate IC50 values.
Statistical analyses were performed using GraphPad Prism (Version 6.01 for Windows; La Jolla, Calif., USA). […]

[2] = Microsomal stability assay, liver microsome half-life (mouse); format: in vitro ADME; settings: pH 7.4; mouse liver microsomes 0.5 mg/mL, 1 μM compound, 37° C.; read-out: Liver microsome T1/2 Mouse
Procedure, shortened: (§1)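 Test compound at 1 μM incubated at 37 °C with 0.5 mg/mL liver microsomal protein plus 1 mM NADPH and/or 1 mM UDPGA (with alamethicin) in 100 mM potassium phosphate pH 7.4, 3 mM MgCl2. Sampled at 0, 15, 30, 60 min, acetonitrile quench, LC/MS/MS; t½ from parent depletion relative to 0 min.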

[3] = Microsomal stability assay, liver microsome half-life (monkey); format: in vitro ADME; settings: pH 7.4; monkey liver microsomes 0.5 mg/mL, 1 μM compound, 37° C.; read-out: Liver microsome T1/2 Monkey
Description: (§2) Microsomal Stability Assay: Microsomal stability assay is a widely used in vitro model to characterize the metabolic conversion by phase I enzymes, such as cytochrome P450 (CYP) enzymes. Since metabolism is known to be highly variable in different species, microsomal stability assay is commonly run in multiple species. Metabolic stability of testing compound can be evaluated using human, rat, mouse, or other animal liver or intestine microsomes to predict intrinsic clearance.
(§3) The assay was carried out in 96-well microtiter plates at 37° C. Reaction mixtures (25 μL) contained a final concentration of 1 μM test compound, 0.5 mg/mL liver microsomes protein, and 1 mM NADPH and/or 1 mM UDPGA (with alamethicin) in 100 mM potassium phosphate, pH 7.4 buffer with 3 mM MgCl2. The incubation was done with N=1, but duplicate incubation at each time point can be prepared if necessary. At each of the time points (for example, 0, 15, 30, and 60 minutes), 150 μL of quench solution (100% acetonitrile with 0.1% formic acid) with internal standard was transferred to each well. Besides the zero minute controls, mixtures containing the same components except the NADPH can also be prepared as the negative control. Verapamil was included as a positive control to verify assay performance. Plates were sealed, vortexed, and centrifuged at 4° C. for 15 minutes at 4000 rpm. The supernatant is transferred to fresh plates for LC/MS/MS analysis.
(§4) Summarized conditions: [Compound]=1 μM, [LM]=0.5 mg/mL, [NADPH]=1 mM and/or [UDPGA]=1 mM, Buffer=100 mM Potassium Phosphate, pH 7.4 with 3 mM MgCl2, Time=0, 15, 30, and 60 min, and Temperature=37° C.
(§5) All samples were analyzed on LC/MS/MS using an AB Sciex API 4000 instrument, coupled to a Shimadzu LC-20AD LC Pump system. Analytical samples were separated using a Waters Atlantis T3 dC18 reverse phase HPLC column (20 mm×2.1 mm) at a flow rate of 0.5 mL/min. The mobile phase consisted of 0.1% formic acid in water (solvent A) and 0.1% formic acid in 100% acetonitrile (solvent B).
(§6) The extent of metabolism is calculated as the disappearance of the test compound, compared to the 0-min time incubation. Initial rates are calculated for the compound concentration and used to determine half-life (t½).

[4] = Microsomal stability assay, liver microsome half-life (human); format: in vitro ADME; settings: pH 7.4; human liver microsomes 0.5 mg/mL, 1 μM compound, 37° C.; read-out: Liver microsome T1/2 Human
Procedure, shortened: as §1

[5] = Microsomal stability assay, liver microsome half-life (rat); format: in vitro ADME; settings: pH 7.4; rat liver microsomes 0.5 mg/mL, 1 μM compound, 37° C.; read-out: Liver microsome T1/2 Rat
Description: as §2, §3, §4, §5
The extent of metabolism is calculated as the disappearance of the test compound, compared to the 0-min time incubation. Initial rates are calculated for the compound concentration and used to determine half-life (t½). […]

androgen receptor (AR) [6] = molecular target: T1, androgen receptor (AR); test: Androgen-induced PSA (6.1 kb)-luciferase reporter assay in LNCaP cells (R1881 1 nM); format: cell-based; parameters: endogenous in cells; host or cells: LNCaP; settings: 24 h, read-out: PSA-Luc IC50 Range
Procedure, shortened: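 Compound or vehicle was added 1 h before 1 nM R1881 to LNCaP cells carrying a transiently transfected (24 h) PSA (6.1 kb)-luciferase reporter. After 24 h androgen exposure, lysate luminescence was normalized to protein and expressed versus vehicle plus R1881 for IC50.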

[7] = Microsomal stability assay, liver microsome half-life (dog); format: in vitro ADME; settings: pH 7.4; dog liver microsomes 0.5 mg/mL, 1 μM compound, 37° C.; read-out: Liver microsome T1/2 Dog
Description: as §2, §3, §4, §5, §6

Row | SMILES | IC50 (androgen receptor (AR) [1]) [nM] | half-life at 1 μM [2] [h] | half-life at 1 μM [3] [h] | half-life at 1 μM [4] [h] | half-life at 1 μM [5] [h] | IC50 (androgen receptor (AR) [6]) [nM] | half-life at 1 μM [7] [h]
1 | CS(=O)(=O)Nc1nccc(COc2ccc3c(ncn3-c3cc(Cl)c(OCCCl)c(C#N)c3)c2Cl)n1 [Compound A46] | < 500 | – | – | – | – | – | –
2 | CC(C)(c1ccc(-c2ccc3nc(NS(C)(=O)=O)cnc3c2)cc1)c1cc(Cl)c(OCCCl)c(C#N)c1 [Compound A107, N-(6-(4-(2-(3-chloro-4-(2-chloroethoxy)-5-cyanophenyl)propan-2-yl)phenyl)quinoxalin-2-yl)methanesulfonamide] | – | > 2 | > 2 | > 2 | > 2 | < 500 | > 2
3 | CC(C)(c1ccc(OCc2ccnc(NS(C)(=O)=O)n2)cc1)c1ccc(OCC(O)CCl)cc1 (stereo not shown) [Compound A150, N-(4-((4-(2-(4-(3-chloro-2-hydroxypropoxy)phenyl)propan-2-yl)phenoxy)methyl)pyrimidin-2-yl)methanesulfonamide] | – | > 2 | > 2 | > 2 | > 2 | < 500 | > 2
4 | CS(=O)(=O)NC12CC(COc3ccc4c(c3)CCC4c3cc(Cl)c(OCCCl)c(C#N)c3)(C1)C2 (stereo not shown) [Compound A246] | – | > 2 | 1.3 | 1.48 | 1.08 | 500 to 2000 | 1.32
5 | CC(C)(c1ccc(OCC23CC(NS(C)(=O)=O)(C2)C3)cc1)c1cc(Cl)c(OCCCl)c(C#N)c1 [Compound A132, N-(3-((4-(2-(3-chloro-4-(2-chloroethoxy)-5-cyanophenyl)propan-2-yl)phenoxy)methyl)bicyclo[1.1.1]pentan-1-yl)methanesulfonamide] | – | > 2 | 0.95 | > 2 | 1.62 | 500 to 2000 | > 2
6 | CC(C)(c1ccc(-c2ccc3c(c2)CCN(S(C)(=O)=O)C3)cc1)c1cc(Cl)c(OCCCl)c(C#N)c1 [Compound A114] | – | > 2 | > 2 | > 2 | > 2 | 500 to 2000 | 1.05
7 | CC(C)(c1ccc(-c2ccc3nc(NS(C)(=O)=O)ncc3c2)cc1)c1cc(Cl)c(OCCCl)c(C#N)c1 [Compound A51, N-[6-(4-{2-[3-chloro-4-(2-chloroethoxy)-5-cyanophenyl]propan-2-yl}phenyl)quinazolin-2-yl]methanesulfonamide] | – | > 2 | > 2 | > 2 | > 2 | < 500 | 1.78
